Laboratory results published in publication PMC3207004 (Clinical cancer research : an official journal of the …, 2011).
Values belong to the molecule of their own block, whether it stands above or below them.

Assays:
[1] = test system: cultured human retinal pigment epithelial cells (RPE); conditions: cited from earlier work
NSCLC = conditions: cited from earlier work
[2] = Plasma pharmacokinetics of PF-04928473 after oral PF-04929113; type: in vivo, human

Compound: C=CCNC1=C2C[C@@H](C)C[C@H](OC)[C@H](O)[C@@H](C)/C=C(\C)[C@H](OC(N)=O)[C@@H](OC)/C=C\C=C(/C)C(=O)NC(=CC1=O)C2=O [17-AAG]
Effect on cultured human retinal pigment epithelial cells [1]: cytostaticity and cytotoxicity

Compound: C=CCNc1c(O)cc2c(O)c1C[C@@H](C)C[C@H](OC)[C@H](O)[C@@H](C)/C=C(\C)[C@H](OC(N)=O)[C@@H](OC)/C=C\C=C(/C)C(=O)N2 [IPI-504]
Objective response (NSCLC; 76 patients with NSCLC): 7% | Objective response, number of patients (NSCLC; 76 patients with NSCLC): 5 patients | Response among 3 patients with ALK rearrangements (NSCLC): 2 PRs and one prolonged SD

Clearance (CL/Fm) ([2]; high value): hepatic and extra-hepatic clearance | Volume of distribution (Vz/Fm) ([2]; high value): extensive tissue binding | half-life ([2]; human, plasma, oral): 8 to 15 h | Dose linearity of pharmacokinetics ([2]; in vivo): almost linear PK | Dose linearity of pharmacokinetics ([2]; in vivo, listed as PF 04928473): almost linear pharmacokinetics | Absorption following oral administration ([2]; patients): rapid absorption | Drug accumulation after multiple dosing ([2]; twice weekly): no drug accumulation
Compound: CC1(C)CC(=O)c2c(C(F)(F)F)nn(-c3ccc(C(N)=O)c(N[C@H]4CC[C@H](O)CC4)c3)c2C1 [PF-04928473]
Time span in which active drug was detectable in plasma ([2]; after oral PF-04929113): detectable at 20 minutes through 48 hours | Change of half-life across dose levels ([2]; in vivo): doesn’t appear to change across different dose levels

Compound: COC1=C2C[C@@H](C)C[C@H](OC)[C@H](O)[C@@H](C)/C=C(\C)[C@H](OC(N)=O)[C@@H](OC)/C=C\C=C(/C)C(=O)NC(=CC1=O)C2=O [geldanamycin]
Effect on cultured human retinal pigment epithelial cells [1]: cytostaticity and cytotoxicity
